Measurements reported in patent US20130316963A1, “INNATE DEFENCE REGULATORY PEPTIDE COMPOSITIONS FOR TREATMENT OF ARTHRITIS” (UNIVERSITY OF MANITOBA, priority 2010, published 2013).

Key:
Assay type in all cases: cell-based
[1] = system: human FLS cells; experiment: Cellular cytotoxicity by release of lactate dehydrogenase (LDH); conditions: presence and absence of cytokine stimulation, 24 hr; IDR-1002 100 μg/ml, IDR-1 200 μg/ml; data not shown
Experimental: Synovial tissues were obtained from patients with OA in accordance to a protocol by the Institutional Review Board at the University of Manitoba. FLS cells were isolated from the synovial tissues following the procedure taught by Kammouni et al. (2007, Regulation of apoptosis in fibroblast-like synoviocytes by the hypoxia-induced Bcl-2 family member Bcl-2/adenovirus E1B 19-kd protein-interacting protein 3. Arthritis Rheum. 56:2854-2863). […] Cellular cytotoxicity was evaluated by monitoring the release of lactate dehydrogenase (LDH) employing a colorimetric detection kit (Roche Diagnostics, Laval, QC, Canada).
Inflammatory cytokines TNF-α and IL-1β stimulate cells types such as FLS, chondrocytes and macrophages resulting in the production of MMP-3 in arthritic joints. […] In this study we evaluated the impact of IDR peptides on TNF-α and IL-1β-induced MMP-3 production. […] The peptides were not cytotoxic to the FLS cells in the presence and absence of cytokine stimulation, as determined by monitoring the tissue culture supernatants for the release of LDH after 24 hr of stimulation (data not shown). Tissue culture supernatants were monitored after 24 hr of stimulation for MMP-3 production by ELISA. […]

[2] = system: NF-κB; experiment: Secreted NF-κB luciferase reporter assay in rabbit synoviocyte HIG-82 cells; conditions: IL-1β 10 ng/ml, IDR-1002 100 μg/ml, 6 hr, FIG. 3
Experimental: Rabbit synoviocyte HIG-82 cells were transiently transfected with pNFκB-MetLuc2-Reporter Vector (Clontech laboratories Inc., Mountain View, Calif., USA) or the provided control vector as per the manufacturer's instructions. Various stimulants were added to the transfected cells in culture media containing 1% (v/v) FBS. The cells were stimulated with recombinant human IL-1β in the presence and absence of IDR-1002 for 6 hr. The peptide was added either 45 min prior to, or at the time of cytokine stimulation. The activation of NF-κB was monitored by employing the Ready-To-Glow Secreted NF-κB Luciferase Reporter Assay (Clontech) as per the manufacturer's instructions.
Transcription factor NF-κB is central to the destructive effects associated with the escalation and sustenance of inflammatory responses pivotal in chronic inflammatory diseases including arthritis. Quantitative proteomics evaluation using iTRAQ® labelling pointed to the possibility that the peptide IDR-1002 altered IL-1β-induced NF-κB activation. Therefore, this study further evaluated the impact of IDR-1002 on IL-1β-induced direct activation of NF-κB in synovial fibroblasts. […] The activation of NF-κB was monitored by employing the Ready-To-Glow Secreted NF-κB Luciferase Reporter Assay (Clontech) as per the manufacturer's instructions.

[3] = system: Human macrophage-like THP-1 cells; experiment: TNF-α and IL-1β production in IL-32-stimulated THP-1 cells (ELISA); conditions: 24 hr; for reduction of IL-32-induced TNF-α production: FIG. 7A; for reduction of IL-32-induced IL-1β production: FIG. 7B
Experimental: Human macrophage-like THP-1 cells were stimulated for 24 hr with pro-inflammatory cytokine IL-32 (20 ng/ml) in the presence and absence of IDR-1002 (10 or 20 μM). The tissue culture supernatants were monitored for the production of pro-inflammatory cytokines TNF-α and IL-1β after 24 hr by ELISA as described previously.

[4] = system: human FLS cells; experiment: Transcriptional responses for IL-IRA and SIGIRR in human FLS cells (quantitative real-time PCR); conditions: FIG. 6; for IL-IRA transcription / SIGIRR transcription: in comparison to IL-1β alone, 2 hrs
Experimental: Additionally, transcriptional responses for IL-IRA and SIGIRR in these cell cultures were evaluated by quantitative real-time PCR after 2 hrs.

## VQRWLIVWRIRK (IDR-1002 peptide)
[1]
  cytotoxicity to FLS cells (release of LDH): not cytotoxic
[2]
  suppression of IL-1β-induced activation of NF-κB: greater than 70%
[3]; 10 μM IDR-1002, IL-32 20 ng/ml
  reduction of IL-32-induced TNF-α production: 40%
  reduction of IL-32-induced IL-1β production: about 40%
[3]; 20 μM IDR-1002, IL-32 20 ng/ml
  reduction of IL-32-induced TNF-α production: about 70%
  reduction of IL-32-induced IL-1β production: about 65%
[4]; IDR-1002 alone
  IL-IRA transcription: significantly increased
  SIGIRR transcription: significantly increased
[4]; IDR-1002 plus IL-1β
  IL-IRA transcription: significantly increased
  SIGIRR transcription: significantly increased
[4]; human FLS
  SIGIRR gene expression induced by IDR-1002 relative to cells stimulated with IL-1β: more than 9 fold
